Values quoted from earlier work in patent publication US20080213433A1, “Fluid compositions comprising polyphenols and methods for making and packaging the same” (priority 2006, published 2008).

What was measured:
SIRT1 = biological target: T1, SIRT1 (Homo sapiens, UniProt Q96EB6); settings: sirtuin enzyme; cis-isomer compared to trans-resveratrol
T1 sequence (Q96EB6 1-747): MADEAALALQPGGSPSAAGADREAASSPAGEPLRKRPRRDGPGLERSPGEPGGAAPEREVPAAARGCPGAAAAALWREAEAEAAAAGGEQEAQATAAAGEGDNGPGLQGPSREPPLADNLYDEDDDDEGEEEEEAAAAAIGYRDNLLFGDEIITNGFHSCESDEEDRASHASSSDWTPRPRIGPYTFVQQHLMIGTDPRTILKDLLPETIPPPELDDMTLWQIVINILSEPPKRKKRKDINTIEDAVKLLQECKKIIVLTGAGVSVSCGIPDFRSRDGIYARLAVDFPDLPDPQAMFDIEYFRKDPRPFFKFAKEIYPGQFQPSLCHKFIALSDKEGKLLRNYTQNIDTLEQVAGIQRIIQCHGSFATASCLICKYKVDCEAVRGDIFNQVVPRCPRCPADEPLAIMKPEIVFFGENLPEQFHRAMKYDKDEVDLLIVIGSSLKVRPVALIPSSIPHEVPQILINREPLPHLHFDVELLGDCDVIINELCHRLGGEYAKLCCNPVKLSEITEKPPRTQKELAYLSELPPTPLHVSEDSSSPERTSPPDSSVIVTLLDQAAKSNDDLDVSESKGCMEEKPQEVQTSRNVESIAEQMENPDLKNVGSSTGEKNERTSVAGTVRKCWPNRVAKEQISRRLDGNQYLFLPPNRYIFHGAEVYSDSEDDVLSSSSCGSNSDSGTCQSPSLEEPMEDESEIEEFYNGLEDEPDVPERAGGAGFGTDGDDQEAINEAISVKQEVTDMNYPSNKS

[1] = β-glucosidases in the human intestines hydrolyze piceid and release free trans-resveratrol

stimulation / activation of SIRT1 (SIRT1)	bioavailability of trans-resveratrol derived from the β-glucosidic form vs the free form in solution [1]	SMILES
considerably less efficacy		Oc1ccc(/C=C\c2cc(O)cc(O)c2)cc1 [Cis-resveratrol]
stimulate		Oc1ccc(/C=C/c2cc(O)cc(O)c2)cc1 [Trans-resveratrol]
	equivalent	OCC1OC(Oc2cc(O)cc(/C=C/c3ccc(O)cc3)c2)C(O)C(O)C1O (stereo not drawn) [piceid, 2-[3-hydroxy-5-[(E)-2-(4-hydroxyphenyl)ethenyl]phenoxy]-6-(hydroxymethyl)oxane-3,4,5-triol]
